Experimental data: article PMC11596155, “When Chirality Makes the Difference: The Case of Novel Enantiopure N-Heterocyclic Carbene–Gold and –Silver Complexes” (Molecules, 2024)

Tests used:
[1] = test system: NO production in LPS-stimulated RAW 264.7 macrophages (iNOS); assay: Griess assay, NO production in LPS-stimulated RAW 264.7 macrophages; format: cell-based, murine; conditions: 24 h, LPS 1 µg/mL, RAW 264.7, vs LPS only
Excerpt: Inflammation is an important process, in which the immune system is activated, allowing the protection from infections by eliminating pathogens and promoting repairing phenomena. However, in some cases, the inflammation can become chronic, playing a key role in several diseases, such as cancer, diabetes, autoimmune and neurodegenerative disorders. Moreover, chronic inflammation is characterized by a proliferation of different specialized cells, for instance macrophages, fibroblasts, granulocytes and so on. […] NO is produced by nitric oxide synthases (NOS) isoforms, but under different pro-inflammatory stimuli (cytokines or microbial products) it is massively produced by the inducible NOS (iNOS, NOS2; or type II NOS). iNOS can be also overexpressed in several diseases, producing NO in an unregulated manner and contributing to the disease progression. For these reasons, its inhibition represents a good strategy for the treatment of various diseases related to chronic inflammation, amongst them cancer. The anti-inflammatory activity, in terms of NO production inhibition, of the new synthesized chiral complexes was evaluated by the means of a Griess-based assay. Particularly, the NO production was induced in murine macrophages RAW 264.7 stimulated with bacterial lipopolysaccharide (LPS), then they were exposed to the complexes for 24 h and the released NO was quantified (as detailed in the Section 3). […] Therefore, pro-ligands P1 and P2, as R and S pure enantiomers, were tested. The obtained outcomes are visible in Figure 2 (panels A and B, P1 and P2 series, respectively), where it is possible to notice “at glance” that most of the enantiopure compounds were unable to decrease the NO synthesis, induced by LPS treatment in RAW 264.7 macrophages (see pink bars in the graph), with the exception of (R)-AuL1 and (R)-AuL2. Particularly, (R)-AuL1 was able to decrease, dose-dependently, the NO production of about 23 and 35% at 5 and 10 µM, respectively, whereas the S enantiomer was unable to reduce NO, under the same experimental conditions. […] Furthermore, none of the pro-ligands was found able to decrease NO production. […] Finally, viability assays were performed on RAW 264.7 macrophages, recovered after the Griess test.
Anti-inflammatory activity was tested adopting the Griess assay on RAW 264.7 murine macrophages, by measuring NO production, as reported by. Specifically, RAW 264.7 cells were plated on 48 multi-wells and treated with the tested molecules at the indicated concentrations; lipopolysaccharide (LPS, Sigma Aldrich, Milan, Italy), at a final concentration of 1 µg/mL, was used to induce inflammation and stimulate NO production. After 24 h, the cell medium and Griess reagent were mixed at a 1:1 ratio and left under agitation for 30 min, at room temperature. Then, absorbance was measured at 540 nm, using a multiplate reader. The absorbance obtained allowed to assess the percentage of NO production compared with the positive control, in which the cells have been treated with LPS.
Figure 2 Panel (A), L1 series and panel (B), L2 series. Anti-inflammatory activity (pink bars): NO production was induced in murine macrophages RAW 264.7 treated with LPS (1 µg/mL), in presence or not of the enantiopure complexes and pro-ligands at the indicated concentrations (µM), for 24 h. Indomethacin (Ind) was used as the reference molecule. Data were plotted as % NO inhibition with respect to LPS-only treatment. […]

MCF-7 cells = assay: MTT assay, anticancer activity, MCF-7; format: cell-based, human; conditions: mean ± SD of three experiments
Description: (§1) All cell lines used for the reported studies were purchased from the American Type Culture Collection (ATCC, Manassas, VA, USA). Human breast cancer cells MCF-7 and MDA-MB-231 were maintained in Dulbecco’s Modified Eagle Medium/Nutrient Mixture F12 Ham (DMEM/F12) supplemented with 5% fetal bovine serum (FBS), 1% L-glutamine and 100 units/mL of penicillin/streptomycin. Human mammary epithelial cells MCF-10A were cultured in DMEM/F12 medium, supplemented with 5% horse serum (HS), 100 units/mL of penicillin/streptomycin, […], 0.02 µg/mL human epidermal growth factor (EGF), 10 µg/mL insulin and […] [34]. The murine macrophages RAW 264.7 were grown in Dulbecco’s Modified Eagle’s Medium (DMEM) high glucose (4.5 g/L), added with 10% fetal bovine serum (FBS), 1% L-glutamine and 100 units/mL of penicillin/streptomycin. Cells were maintained at 37 °C, in a humidified atmosphere containing 5% CO2.
(§2) Cell viability was determined using the 3-(4,5-dimethylthiazol-2-y1)-2,5-diphenyltetrazolium bromide assay (MTT, Sigma-Aldrich, Milan, Italy), as in [35]. Cells were treated for 72 h (anticancer activity) or 24 h (anti-inflammatory activity) at different concentrations and the IC50 values were obtained using GraphPad Prism 9 software (GraphPad Software, La Jolla, CA, USA).

[2] = test system: Escherichia coli (ATCC 25922); assay: MIC and MBC by broth dilution, E. coli; format: cell-based; conditions: for M.B.C. E. coli / M.I.C. E. coli / MIC: broth dilution, overnight 37 °C; for MIC: Escherichia coli, ATCC25922
Excerpt: (§3) The bacterial strains used for MIC and MBC value determinations expressed as µg/mL by the broth dilution method, according to CLSI guidelines, were the following: Gram-negative: Escherichia coli (ATCC® 25922TM); Gram-positive: Staphylococcus aureus (ATCC® 23235TM). The MIC represents the lowest concentration of compound able to inhibit the visible microbial growth, expressed in μg/mL, whereas the MBC is the lowest concentration of a given compound that can completely kill the bacteria. Bacteria were grown overnight in LB medium (2%), diluted at a density of […] colony forming units (CFUs/mL), plated in the 96-well microplates to obtain a total inoculum load of ca. 10^5 cells/well and then treated with increasing concentrations of the tested complexes (1, 5, 10, 20, 50, 100, 200 μg/mL). Successively, after incubation at 37 °C overnight, the bacterial growth was monitored at a wavelength of 600 nm using a Multiskan spectrophotometer (Multiskan Ex Microplate model; Thermo Scientific, Nyon, Switzerland). MIC or MBC values were obtained by comparing cell density with a positive control (bacterial cells grown in LB medium were added with only the vehicle, DMSO). The results were representative of three independent experiments performed in triplicate and ampicillin (Sigma Aldrich A9393) was used as the control for strain sensitivity.

MDA-MB-231 cells = assay: MTT assay, anticancer activity, MDA-MB-231; format: cell-based, human; conditions: for IC50: mean ± SD of three experiments
Description: as §1, §2

MCF-10A cells = assay: MTT assay, cytotoxicity on normal mammary epithelial cells MCF-10A; format: cell-based, human; conditions: 72 h, normal cells, mean ± SD of three experiments
Description: as §1, §2

[3] = test system: Staphylococcus aureus (ATCC 23235); assay: MIC and MBC by broth dilution, S. aureus; format: cell-based; conditions: for M.B.C. S. aureus / M.I.C. S. aureus / MIC: broth dilution, overnight 37 °C; for MIC: Staphylococcus aureus, ATCC23235, read-out: M.I.C. S. aureus
Excerpt: as §3

| SMILES | decrease of NO production ([1]; 5 µM) | decrease of NO production ([1]; 10 µM) | IC50 (MCF-7 cells; 72 h) | M.B.C. E. coli [2] | M.I.C. E. coli [2] | IC50 (MDA-MB-231 cells; 72 h) | IC50 (MCF-10A cells) | M.B.C. S. aureus [3] | M.I.C. S. aureus [3] | IC50 (MCF-7 cells; Homo sapiens, MCF7, 72 h) | MIC [2] | IC50 (MDA-MB-231 cells; Homo sapiens, MDA-MB-231, 72 h) | IC50 (MCF-10A cells; Homo sapiens, MCF-10A) | MIC [3] | strain sensitivity E. coli (in words) ([2]; control for strain sensitivity) | strain sensitivity S. aureus (in words) ([3]; control for strain sensitivity) | decrease of NO production ([1]; 50 µM) | effect on MDA-MB-231 viability (in words) (MDA-MB-231 cells; 72 h) |
| --- | --- | --- | --- | --- | --- | --- | --- | --- | --- | --- | --- | --- | --- | --- | --- | --- | --- | --- |
| CN1C=CN(C[C@H](O)c2ccccc2)[CH]1[Au-][Cl] (stereo partly drawn) [(R)-AuL1, (1-((R)-2-hydroxy-2-phenylethyl)-3-methyl-2,3-dihydro-1H-imidazol-2-yl)gold(I) chloride] | about 23% | ~35% | 16 ± 0.8 µM | > 150 µg/mL | 75 µg/mL | 15.3 ± 4.5 µM | 52.9 ± 2.2 µM | > 150 µg/mL | 25 µg/mL | – | – | – | – | – | – | – | – | – |
| C[n+]1ccn(C[C@@H](O)c2ccccc2)c1.[I-] [(S)-P1, (S)-1-(2-hydroxy-2-phenylethyl)-3-methyl-1H-imidazol-3-ium iodide] | – | – | – | > 200 µg/mL | – | – | – | > 150 µg/mL | – | > 200 µM | 100 µg/mL | > 200 µM | > 200 µM | 75 µg/mL | – | – | – | – |
| CN1C=CN(C[C@@H](O)c2ccccc2)[CH]1[AgH][I] (stereo partly drawn) [(S)-AgL1, (1-((S)-2-hydroxy-2-phenylethyl)-3-methyl-2,3-dihydro-1H-imidazol-2-yl)silver(I) iodide] | – | – | 69.8 ± 2.1 µM | > 200 µg/mL | 75 µg/mL | > 200 µM | > 200 µM | > 100 µg/mL | 50 µg/mL | – | – | – | – | – | – | – | – | – |
| C[n+]1ccn(C[C@H](O)c2ccccc2)c1.[I-] [(R)-P1, (R)-1-(2-hydroxy-2-phenylethyl)-3-methyl-1H-imidazol-3-ium iodide] | – | – | – | > 200 µg/mL | – | – | – | > 150 µg/mL | – | > 200 µM | 100 µg/mL | > 200 µM | > 200 µM | 75 µg/mL | – | – | – | – |
| CN1C=CN(C[C@@H](O)c2ccccc2)[CH]1[Au-][Cl] (stereo partly drawn) [(S)-AuL1, (1-((S)-2-hydroxy-2-phenylethyl)-3-methyl-2,3-dihydro-1H-imidazol-2-yl)gold(I) chloride] | – | – | 14.6 ± 1 µM | > 150 µg/mL | 75 µg/mL | 22.6 ± 0.4 µM | 64.5 ± 3.2 µM | > 150 µg/mL | 75 µg/mL | – | – | – | – | – | – | – | – | – |
| C[n+]1cn(C[C@@H](O)c2ccccc2)c(Cl)c1Cl.[I-] [(S)-P2, (S)-4,5-dichloro-1-(2-hydroxy-2-phenylethyl)-3-methyl-1H-imidazol-3-ium iodide] | – | – | – | > 150 µg/mL | – | – | – | > 200 µg/mL | – | > 200 µM | 75 µg/mL | > 200 µM | > 200 µM | 75 µg/mL | – | – | – | – |
| CN1C(Cl)=C(Cl)N(C[C@@H](O)c2ccccc2)[CH]1[Au-][Cl] (stereo partly drawn) [(S)-AuL2, (4,5-dichloro-1-((S)-2-hydroxy-2-phenylethyl)-3-methyl-2,3-dihydro-1H-imidazol-2-yl)gold(I) chloride] | – | – | 10 ± 0.5 µM | > 200 µg/mL | 100 µg/mL | 11.5 ± 0.4 µM | 17.2 ± 1.6 µM | > 100 µg/mL | 75 µg/mL | – | – | – | – | – | – | – | – | – |
| CC1(C)S[C@@H]2[C@H](NC(=O)[C@H](N)c3ccccc3)C(=O)N2[C@H]1C(=O)O [ampicillin, reference compound] | – | – | – | – | – | – | – | – | – | – | – | – | – | – | sensitive | sensitive | – | – |
| COc1ccc2c(c1)c(CC(=O)O)c(C)n2C(=O)c1ccc(Cl)cc1 [Ind, Indomethacin, reference compound] | – | – | – | – | – | – | – | – | – | – | – | – | – | – | – | – | about 26% | – |
| CN1C(Cl)=C(Cl)N(C[C@H](O)c2ccccc2)[CH]1[AgH][I] (stereo partly drawn) [(R)-AgL2, (4,5-dichloro-1-((R)-2-hydroxy-2-phenylethyl)-3-methyl-2,3-dihydro-1H-imidazol-2-yl)silver(I) iodide] | – | – | 18.4 ± 0.9 µM | > 100 µg/mL | 50 µg/mL | 6.7 ± 0.7 µM | 69.2 ± 2.7 µM | > 150 µg/mL | 75 µg/mL | – | – | – | – | – | – | – | – | – |
| CN1C(Cl)=C(Cl)N(C[C@@H](O)c2ccccc2)[CH]1[AgH][I] (stereo partly drawn) [(S)-AgL2, (4,5-dichloro-1-((S)-2-hydroxy-2-phenylethyl)-3-methyl-2,3-dihydro-1H-imidazol-2-yl)silver(I) iodide] | – | – | 4 ± 0.5 µM | > 200 µg/mL | 75 µg/mL | > 200 µM | > 200 µM | > 200 µg/mL | 75 µg/mL | – | – | – | – | – | – | – | – | inactive |
| C[n+]1cn(C[C@H](O)c2ccccc2)c(Cl)c1Cl.[I-] [(R)-P2, (R)-4,5-dichloro-1-(2-hydroxy-2-phenylethyl)-3-methyl-1H-imidazol-3-ium iodide] | – | – | – | > 200 µg/mL | – | – | – | > 150 µg/mL | – | > 200 µM | 75 µg/mL | > 200 µM | > 200 µM | 75 µg/mL | – | – | – | – |
| CN1C=CN(C[C@H](O)c2ccccc2)[CH]1[AgH][I] (stereo partly drawn) [(R)-AgL1, (1-((R)-2-hydroxy-2-phenylethyl)-3-methyl-2,3-dihydro-1H-imidazol-2-yl)silver(I) iodide] | – | – | 14.5 ± 1.2 µM | > 100 µg/mL | 25 µg/mL | 9.2 ± 0.5 µM | 54.8 ± 2.1 µM | > 150 µg/mL | 75 µg/mL | – | – | – | – | – | – | – | – | – |
